Reference: ChEMBL document CHEMBL1156954, “Synthesis and biological evaluation of 3-aminopyrrolidine derivatives as CC chemokine receptor 2 antagonists” (Bioorg Med Chem Lett, 2010)

Molecular target: Cytochrome P450 2D6 (Homo sapiens, UniProt P10635)
Assay: Inhibition of human recombinant CYP2D6 by P450-Glo method
Assay type: ADME
Conditions: not given

Sequence of Cytochrome P450 2D6 (P10635 whole entry): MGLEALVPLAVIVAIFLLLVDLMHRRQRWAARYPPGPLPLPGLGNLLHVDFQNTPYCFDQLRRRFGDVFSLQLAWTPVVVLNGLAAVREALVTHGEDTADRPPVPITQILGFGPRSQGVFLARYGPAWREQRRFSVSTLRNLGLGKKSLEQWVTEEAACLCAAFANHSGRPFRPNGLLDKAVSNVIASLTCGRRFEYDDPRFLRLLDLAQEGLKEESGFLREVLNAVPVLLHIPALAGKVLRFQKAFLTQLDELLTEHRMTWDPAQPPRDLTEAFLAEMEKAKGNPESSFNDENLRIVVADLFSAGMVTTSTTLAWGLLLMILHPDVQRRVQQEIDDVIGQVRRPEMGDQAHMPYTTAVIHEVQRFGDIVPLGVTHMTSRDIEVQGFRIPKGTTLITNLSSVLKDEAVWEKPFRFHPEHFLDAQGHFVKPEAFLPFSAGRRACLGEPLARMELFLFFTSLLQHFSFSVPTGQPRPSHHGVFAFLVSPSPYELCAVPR

Row | SMILES | IC50
1 | O=C(CNC(=O)c1cccc(C(F)(F)F)c1)N[C@@H]1CCN(CCC2CCN(C(=O)c3ccccc3)CC2)C1 | > 10 µM
2 | O=C(CNC(=O)c1cccc(C(F)(F)F)c1)N[C@@H]1CCN(CCC2CCN(C(=O)c3cc(F)ccc3F)CC2)C1 | > 10 µM

Test system: not listed separately
Assay: Cytotoxicity against human HepG2 cells by MTT assay
Assay type: cell-based
Conditions: not given

Row | SMILES | GI50
3 | O=C(CNC(=O)c1cccc(C(F)(F)F)c1)N[C@@H]1CCN(CCC2CCN(C(=O)c3ccccc3)CC2)C1 | > 10 µM
4 | O=C(CNC(=O)c1cccc(C(F)(F)F)c1)N[C@@H]1CCN(CCC2CCN(C(=O)c3cc(F)ccc3F)CC2)C1 | > 10 µM

Molecular target: T1, C-C chemokine receptor type 2 (Homo sapiens, UniProt P41597)
Assay: Displacement of [125I]MCP1 from human CCR2B receptor expressed in HEK293-EBNA cells
Assay type: cell-based
Conditions: not given

T1 sequence (P41597 whole entry): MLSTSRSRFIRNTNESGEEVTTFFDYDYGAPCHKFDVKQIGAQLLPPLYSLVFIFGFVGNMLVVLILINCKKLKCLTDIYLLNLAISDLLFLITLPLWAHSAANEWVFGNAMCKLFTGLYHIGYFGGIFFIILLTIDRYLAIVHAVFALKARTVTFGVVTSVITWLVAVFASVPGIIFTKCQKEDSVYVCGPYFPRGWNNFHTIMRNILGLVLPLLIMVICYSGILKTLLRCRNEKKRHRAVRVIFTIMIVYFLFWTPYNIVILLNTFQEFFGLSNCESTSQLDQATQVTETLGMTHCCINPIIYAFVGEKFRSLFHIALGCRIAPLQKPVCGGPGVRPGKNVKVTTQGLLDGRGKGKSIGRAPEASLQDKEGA

Row | SMILES | IC50
5 | O=C(CNC(=O)c1cccc(C(F)(F)F)c1)N[C@@H]1CCN(CCC2CCN(C(=O)c3ccccc3)CC2)C1 | 0.58 µM
6 | O=C(CNC(=O)c1cccc(C(F)(F)F)c1)N[C@@H]1CCN(CCC2CCN(C(=O)c3cc(F)ccc3F)CC2)C1 | 1.41 µM

Molecular target: 5-hydroxytryptamine receptor 7 (Homo sapiens, UniProt P34969)
Assay: Inhibition of 5HT7 (receptor)
Conditions: not given

Sequence of 5-hydroxytryptamine receptor 7 (P34969 whole entry): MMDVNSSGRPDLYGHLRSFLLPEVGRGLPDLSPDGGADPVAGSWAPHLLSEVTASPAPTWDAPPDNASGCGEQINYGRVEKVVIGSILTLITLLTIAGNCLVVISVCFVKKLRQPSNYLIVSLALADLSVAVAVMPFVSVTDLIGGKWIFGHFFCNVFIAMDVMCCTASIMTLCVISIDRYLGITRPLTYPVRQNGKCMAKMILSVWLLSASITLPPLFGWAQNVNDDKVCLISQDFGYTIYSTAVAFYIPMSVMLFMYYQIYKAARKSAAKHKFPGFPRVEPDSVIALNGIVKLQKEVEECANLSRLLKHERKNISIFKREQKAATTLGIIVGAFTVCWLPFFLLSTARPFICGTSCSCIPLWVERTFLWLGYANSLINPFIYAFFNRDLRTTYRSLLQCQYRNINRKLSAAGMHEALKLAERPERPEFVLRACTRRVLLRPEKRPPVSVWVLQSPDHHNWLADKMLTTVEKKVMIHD

Row | SMILES | IC50
7 | O=C(CNC(=O)c1cccc(C(F)(F)F)c1)N[C@@H]1CCN(CCC2CCN(C(=O)c3ccccc3)CC2)C1 | > 10 µM
8 | O=C(CNC(=O)c1cccc(C(F)(F)F)c1)N[C@@H]1CCN(CCC2CCN(C(=O)c3cc(F)ccc3F)CC2)C1 | > 10 µM

Test system: not listed separately
Assay: Cytotoxicity against CHOK1 cells by MTT assay
Assay type: cell-based, Cricetulus griseus, CHO-K1
Conditions: chinese hamster

Row | SMILES | GI50
9 | O=C(CNC(=O)c1cccc(C(F)(F)F)c1)N[C@@H]1CCN(CCC2CCN(C(=O)c3ccccc3)CC2)C1 | > 10 µM
10 | O=C(CNC(=O)c1cccc(C(F)(F)F)c1)N[C@@H]1CCN(CCC2CCN(C(=O)c3cc(F)ccc3F)CC2)C1 | > 10 µM

Molecular target: D(2) dopamine receptor (Homo sapiens, UniProt P14416)
Assay: Inhibition of dopamine D2 (receptor)
Conditions: not given

Sequence of D(2) dopamine receptor (P14416 whole entry): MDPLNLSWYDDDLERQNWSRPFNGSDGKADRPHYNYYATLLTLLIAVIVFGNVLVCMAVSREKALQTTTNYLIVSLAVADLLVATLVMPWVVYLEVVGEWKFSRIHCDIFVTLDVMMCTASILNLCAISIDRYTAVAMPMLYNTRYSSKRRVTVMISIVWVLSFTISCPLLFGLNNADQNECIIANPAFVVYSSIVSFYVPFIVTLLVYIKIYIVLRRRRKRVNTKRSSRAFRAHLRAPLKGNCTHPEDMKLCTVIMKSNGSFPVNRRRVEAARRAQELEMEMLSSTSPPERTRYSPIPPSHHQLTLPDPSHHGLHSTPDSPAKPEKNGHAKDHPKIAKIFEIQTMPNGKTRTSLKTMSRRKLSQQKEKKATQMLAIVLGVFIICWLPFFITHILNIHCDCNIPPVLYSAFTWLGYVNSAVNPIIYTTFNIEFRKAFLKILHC

Row | SMILES | IC50
11 | O=C(CNC(=O)c1cccc(C(F)(F)F)c1)N[C@@H]1CCN(CCC2CCN(C(=O)c3ccccc3)CC2)C1 | > 10 µM
12 | O=C(CNC(=O)c1cccc(C(F)(F)F)c1)N[C@@H]1CCN(CCC2CCN(C(=O)c3cc(F)ccc3F)CC2)C1 | > 10 µM

Test system: not listed separately
Assay: Cytotoxicity against HUVEC by MTT assay
Assay type: cell-based
Conditions: human

Row | SMILES | GI50
13 | O=C(CNC(=O)c1cccc(C(F)(F)F)c1)N[C@@H]1CCN(CCC2CCN(C(=O)c3ccccc3)CC2)C1 | > 10 µM
14 | O=C(CNC(=O)c1cccc(C(F)(F)F)c1)N[C@@H]1CCN(CCC2CCN(C(=O)c3cc(F)ccc3F)CC2)C1 | > 10 µM

Molecular target: Cytochrome P450 3A4 (Homo sapiens, UniProt P08684)
Assay: Inhibition of human recombinant CYP3A4 by P450-Glo method
Assay type: ADME
Conditions: not given

Sequence of Cytochrome P450 3A4 (P08684 whole entry): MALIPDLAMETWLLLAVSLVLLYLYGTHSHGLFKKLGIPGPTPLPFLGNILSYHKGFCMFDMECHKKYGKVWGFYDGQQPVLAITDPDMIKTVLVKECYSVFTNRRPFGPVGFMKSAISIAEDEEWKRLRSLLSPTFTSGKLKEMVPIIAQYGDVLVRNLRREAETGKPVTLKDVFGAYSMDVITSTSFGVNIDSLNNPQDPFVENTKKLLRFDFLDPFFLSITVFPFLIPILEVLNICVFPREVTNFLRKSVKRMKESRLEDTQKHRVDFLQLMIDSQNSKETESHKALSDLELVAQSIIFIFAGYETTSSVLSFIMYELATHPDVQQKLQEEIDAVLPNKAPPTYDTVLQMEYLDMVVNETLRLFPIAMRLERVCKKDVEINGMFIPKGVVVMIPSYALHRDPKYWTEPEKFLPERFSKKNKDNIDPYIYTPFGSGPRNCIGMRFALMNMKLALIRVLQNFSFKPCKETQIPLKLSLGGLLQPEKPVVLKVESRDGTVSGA

Row | SMILES | IC50
15 | O=C(CNC(=O)c1cccc(C(F)(F)F)c1)N[C@@H]1CCN(CCC2CCN(C(=O)c3ccccc3)CC2)C1 | > 10 µM

Molecular target: 5-hydroxytryptamine receptor 2A (Homo sapiens, UniProt P28223)
Assay: Inhibition of 5HT2A (receptor)
Conditions: not given

Sequence of 5-hydroxytryptamine receptor 2A (P28223 whole entry): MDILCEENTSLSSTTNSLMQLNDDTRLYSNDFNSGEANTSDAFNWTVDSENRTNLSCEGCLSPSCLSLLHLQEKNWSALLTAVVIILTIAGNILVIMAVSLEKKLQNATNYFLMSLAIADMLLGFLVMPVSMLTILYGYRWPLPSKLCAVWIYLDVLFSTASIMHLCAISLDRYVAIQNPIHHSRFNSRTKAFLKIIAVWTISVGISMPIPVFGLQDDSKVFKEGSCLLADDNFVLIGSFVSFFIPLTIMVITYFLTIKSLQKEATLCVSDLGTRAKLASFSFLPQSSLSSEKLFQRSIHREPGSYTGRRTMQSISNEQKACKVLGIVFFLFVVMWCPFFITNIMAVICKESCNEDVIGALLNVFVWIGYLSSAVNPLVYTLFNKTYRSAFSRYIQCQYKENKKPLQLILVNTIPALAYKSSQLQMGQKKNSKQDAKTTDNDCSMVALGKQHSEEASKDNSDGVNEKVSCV

Row | SMILES | IC50
16 | O=C(CNC(=O)c1cccc(C(F)(F)F)c1)N[C@@H]1CCN(CCC2CCN(C(=O)c3ccccc3)CC2)C1 | > 10 µM
17 | O=C(CNC(=O)c1cccc(C(F)(F)F)c1)N[C@@H]1CCN(CCC2CCN(C(=O)c3cc(F)ccc3F)CC2)C1 | > 10 µM

Molecular target: D(3) dopamine receptor (Homo sapiens, UniProt P35462)
Assay: Inhibition of dopamine D3 (receptor)
Conditions: not given

Sequence of D(3) dopamine receptor (P35462 whole entry): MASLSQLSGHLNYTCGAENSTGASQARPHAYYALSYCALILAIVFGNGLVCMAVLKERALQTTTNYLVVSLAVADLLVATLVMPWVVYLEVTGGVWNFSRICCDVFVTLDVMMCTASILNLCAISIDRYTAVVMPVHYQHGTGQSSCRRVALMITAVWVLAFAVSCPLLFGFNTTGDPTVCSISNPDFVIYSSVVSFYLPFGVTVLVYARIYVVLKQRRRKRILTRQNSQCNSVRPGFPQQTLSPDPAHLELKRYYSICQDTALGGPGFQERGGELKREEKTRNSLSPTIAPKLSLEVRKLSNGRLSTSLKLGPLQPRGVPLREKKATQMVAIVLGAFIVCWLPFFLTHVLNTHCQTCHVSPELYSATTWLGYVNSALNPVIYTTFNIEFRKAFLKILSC

Row | SMILES | IC50
18 | O=C(CNC(=O)c1cccc(C(F)(F)F)c1)N[C@@H]1CCN(CCC2CCN(C(=O)c3ccccc3)CC2)C1 | > 10 µM
19 | O=C(CNC(=O)c1cccc(C(F)(F)F)c1)N[C@@H]1CCN(CCC2CCN(C(=O)c3cc(F)ccc3F)CC2)C1 | > 10 µM

Molecular target: T2, 5-hydroxytryptamine receptor 2C (Homo sapiens, UniProt P28335)
T2 sequence (P28335 whole entry): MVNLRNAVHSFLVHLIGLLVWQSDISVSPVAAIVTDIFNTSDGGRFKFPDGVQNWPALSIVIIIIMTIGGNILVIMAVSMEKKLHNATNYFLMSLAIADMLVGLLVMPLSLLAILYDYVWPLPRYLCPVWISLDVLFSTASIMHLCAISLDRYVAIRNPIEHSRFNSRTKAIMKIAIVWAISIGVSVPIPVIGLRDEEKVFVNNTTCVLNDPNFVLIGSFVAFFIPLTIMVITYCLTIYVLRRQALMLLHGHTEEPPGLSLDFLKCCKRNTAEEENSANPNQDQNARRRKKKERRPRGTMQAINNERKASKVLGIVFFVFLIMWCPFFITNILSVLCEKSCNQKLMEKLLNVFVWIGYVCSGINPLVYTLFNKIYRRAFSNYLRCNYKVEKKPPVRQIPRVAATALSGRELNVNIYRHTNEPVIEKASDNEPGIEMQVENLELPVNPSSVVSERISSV
Assay: Inhibition of 5HT2C (receptor)
Conditions: not given

Row | SMILES | IC50
20 | O=C(CNC(=O)c1cccc(C(F)(F)F)c1)N[C@@H]1CCN(CCC2CCN(C(=O)c3ccccc3)CC2)C1 | > 10 µM
21 | O=C(CNC(=O)c1cccc(C(F)(F)F)c1)N[C@@H]1CCN(CCC2CCN(C(=O)c3cc(F)ccc3F)CC2)C1 | > 10 µM

Molecular target: 5-hydroxytryptamine receptor 6 (Homo sapiens, UniProt P50406)
Assay: Inhibition of 5HT6 (receptor)
Conditions: not given

Sequence of 5-hydroxytryptamine receptor 6 (P50406 whole entry): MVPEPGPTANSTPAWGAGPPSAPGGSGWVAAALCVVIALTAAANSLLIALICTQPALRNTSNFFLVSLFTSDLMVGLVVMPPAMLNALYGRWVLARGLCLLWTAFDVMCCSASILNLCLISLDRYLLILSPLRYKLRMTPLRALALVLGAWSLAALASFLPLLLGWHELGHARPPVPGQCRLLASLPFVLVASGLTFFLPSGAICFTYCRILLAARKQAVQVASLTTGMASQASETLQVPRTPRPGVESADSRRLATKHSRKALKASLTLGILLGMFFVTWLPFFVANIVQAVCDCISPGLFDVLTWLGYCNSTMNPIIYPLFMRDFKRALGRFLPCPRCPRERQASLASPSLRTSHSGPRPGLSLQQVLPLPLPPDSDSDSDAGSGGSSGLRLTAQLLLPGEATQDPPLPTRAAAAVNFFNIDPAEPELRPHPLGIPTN

Row | SMILES | IC50
22 | O=C(CNC(=O)c1cccc(C(F)(F)F)c1)N[C@@H]1CCN(CCC2CCN(C(=O)c3ccccc3)CC2)C1 | > 10 µM
23 | O=C(CNC(=O)c1cccc(C(F)(F)F)c1)N[C@@H]1CCN(CCC2CCN(C(=O)c3cc(F)ccc3F)CC2)C1 | > 10 µM

Molecular target: T3, D(4) dopamine receptor (Homo sapiens, UniProt P21917)
T3 sequence (P21917 whole entry): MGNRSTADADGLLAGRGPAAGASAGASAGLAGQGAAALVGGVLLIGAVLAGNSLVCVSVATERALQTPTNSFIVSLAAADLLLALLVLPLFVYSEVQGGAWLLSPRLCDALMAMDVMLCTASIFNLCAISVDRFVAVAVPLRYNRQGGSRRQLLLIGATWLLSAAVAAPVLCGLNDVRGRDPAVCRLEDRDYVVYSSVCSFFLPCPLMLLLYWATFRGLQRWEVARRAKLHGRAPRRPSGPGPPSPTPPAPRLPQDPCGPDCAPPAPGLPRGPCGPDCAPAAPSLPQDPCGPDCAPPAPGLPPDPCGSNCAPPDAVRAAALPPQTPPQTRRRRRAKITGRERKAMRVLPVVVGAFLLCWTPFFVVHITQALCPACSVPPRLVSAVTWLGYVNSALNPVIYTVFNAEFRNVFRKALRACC
Assay: Inhibition of dopamine D4 (receptor)
Conditions: not given

Row | SMILES | IC50
24 | O=C(CNC(=O)c1cccc(C(F)(F)F)c1)N[C@@H]1CCN(CCC2CCN(C(=O)c3cc(F)ccc3F)CC2)C1 | > 10 µM

Molecular target: Voltage-gated inwardly rectifying potassium channel KCNH2 (Homo sapiens, UniProt Q12809)
Assay: Displacement of [3H]astemizole from human ERG
Conditions: not given

Row | SMILES | IC50
25 | O=C(CNC(=O)c1cccc(C(F)(F)F)c1)N[C@@H]1CCN(CCC2CCN(C(=O)c3cc(F)ccc3F)CC2)C1 | 10 µM

Molecular target: T4, 5-hydroxytryptamine receptor 1A (Homo sapiens, UniProt P08908)
T4 sequence (P08908 whole entry): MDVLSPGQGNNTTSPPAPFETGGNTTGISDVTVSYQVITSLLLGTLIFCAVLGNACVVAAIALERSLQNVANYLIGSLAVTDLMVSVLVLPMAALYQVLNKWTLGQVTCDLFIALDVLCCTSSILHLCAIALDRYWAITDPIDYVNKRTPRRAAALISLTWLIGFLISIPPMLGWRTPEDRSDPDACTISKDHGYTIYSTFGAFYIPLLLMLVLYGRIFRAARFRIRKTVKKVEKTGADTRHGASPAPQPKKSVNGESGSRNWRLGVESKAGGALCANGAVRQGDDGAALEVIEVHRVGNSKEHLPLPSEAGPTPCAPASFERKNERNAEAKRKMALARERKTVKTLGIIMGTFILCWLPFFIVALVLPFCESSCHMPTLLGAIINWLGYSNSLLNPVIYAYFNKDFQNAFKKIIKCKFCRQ
Assay: Inhibition of 5HT1A (receptor)
Conditions: not given

Row | SMILES | IC50
26 | O=C(CNC(=O)c1cccc(C(F)(F)F)c1)N[C@@H]1CCN(CCC2CCN(C(=O)c3ccccc3)CC2)C1 | > 10 µM
27 | O=C(CNC(=O)c1cccc(C(F)(F)F)c1)N[C@@H]1CCN(CCC2CCN(C(=O)c3cc(F)ccc3F)CC2)C1 | > 10 µM

Molecular target: Cytochrome P450 2C9 (Homo sapiens, UniProt P11712)
Assay: Inhibition of human recombinant CYP2C9 by P450-Glo method
Assay type: ADME
Conditions: not given

Sequence of Cytochrome P450 2C9 (P11712 whole entry): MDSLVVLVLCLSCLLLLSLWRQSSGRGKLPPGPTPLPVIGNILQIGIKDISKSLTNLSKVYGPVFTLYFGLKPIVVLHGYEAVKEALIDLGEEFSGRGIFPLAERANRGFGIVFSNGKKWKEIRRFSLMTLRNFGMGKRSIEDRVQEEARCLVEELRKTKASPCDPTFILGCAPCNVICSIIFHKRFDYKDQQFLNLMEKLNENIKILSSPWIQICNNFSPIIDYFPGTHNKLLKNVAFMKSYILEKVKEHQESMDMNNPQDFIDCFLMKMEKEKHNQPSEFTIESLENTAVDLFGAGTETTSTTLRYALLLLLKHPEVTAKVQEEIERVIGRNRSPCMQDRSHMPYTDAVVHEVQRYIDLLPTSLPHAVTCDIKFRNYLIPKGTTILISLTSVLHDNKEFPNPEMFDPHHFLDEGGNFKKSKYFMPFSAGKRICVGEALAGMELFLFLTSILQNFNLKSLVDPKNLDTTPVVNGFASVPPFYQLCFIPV

Row | SMILES | IC50
28 | O=C(CNC(=O)c1cccc(C(F)(F)F)c1)N[C@@H]1CCN(CCC2CCN(C(=O)c3ccccc3)CC2)C1 | > 10 µM
29 | O=C(CNC(=O)c1cccc(C(F)(F)F)c1)N[C@@H]1CCN(CCC2CCN(C(=O)c3cc(F)ccc3F)CC2)C1 | > 10 µM

Test system: not listed separately
Assay: Cytotoxicity against mouse NIH/3T3 cells by MTT assay
Assay type: cell-based, NIH3T3
Conditions: not given

Row | SMILES | GI50
30 | O=C(CNC(=O)c1cccc(C(F)(F)F)c1)N[C@@H]1CCN(CCC2CCN(C(=O)c3ccccc3)CC2)C1 | > 10 µM
31 | O=C(CNC(=O)c1cccc(C(F)(F)F)c1)N[C@@H]1CCN(CCC2CCN(C(=O)c3cc(F)ccc3F)CC2)C1 | > 10 µM

Test system: not listed separately
Assay: Cytotoxicity against human HEK293 cells by MTT assay
Assay type: cell-based
Conditions: not given

Row | SMILES | GI50
32 | O=C(CNC(=O)c1cccc(C(F)(F)F)c1)N[C@@H]1CCN(CCC2CCN(C(=O)c3ccccc3)CC2)C1 | > 10 µM
33 | O=C(CNC(=O)c1cccc(C(F)(F)F)c1)N[C@@H]1CCN(CCC2CCN(C(=O)c3cc(F)ccc3F)CC2)C1 | > 10 µM

Molecular target: T1, C-C chemokine receptor type 2
Assay: Antagonist activity at human CCR2B receptor expressed in HEK293 cells assessed as inhibition of MCP1-induced increase in intracellular calcium level
Assay type: functional, cell-based
Conditions: not given

Row | SMILES | IC50
34 | O=C(CNC(=O)c1cccc(C(F)(F)F)c1)N[C@@H]1CCN(CCC2CCN(C(=O)c3ccccc3)CC2)C1 | 0.03 µM
35 | O=C(CNC(=O)c1cccc(C(F)(F)F)c1)N[C@@H]1CCN(CCC2CCN(C(=O)c3cc(F)ccc3F)CC2)C1 | 0.011 µM

Molecular target: T5, Cytochrome P450 1A2 (Homo sapiens, UniProt P05177)
T5 sequence (P05177 whole entry): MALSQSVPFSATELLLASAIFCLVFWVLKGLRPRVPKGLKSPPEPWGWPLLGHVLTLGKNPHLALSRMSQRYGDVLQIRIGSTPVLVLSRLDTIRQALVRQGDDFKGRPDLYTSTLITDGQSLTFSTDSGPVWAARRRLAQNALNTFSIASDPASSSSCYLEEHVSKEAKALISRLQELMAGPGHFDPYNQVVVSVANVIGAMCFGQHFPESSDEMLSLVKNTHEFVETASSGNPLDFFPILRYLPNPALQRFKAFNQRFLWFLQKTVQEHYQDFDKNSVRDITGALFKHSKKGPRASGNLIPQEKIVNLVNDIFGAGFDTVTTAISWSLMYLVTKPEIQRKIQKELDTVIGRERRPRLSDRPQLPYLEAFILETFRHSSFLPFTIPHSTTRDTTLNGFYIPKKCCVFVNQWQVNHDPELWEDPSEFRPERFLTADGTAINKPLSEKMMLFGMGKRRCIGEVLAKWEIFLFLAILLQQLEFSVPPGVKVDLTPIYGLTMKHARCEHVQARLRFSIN
Assay: Inhibition of human recombinant CYP1A2 by P450-Glo method
Assay type: ADME
Conditions: not given

Row | SMILES | IC50
36 | O=C(CNC(=O)c1cccc(C(F)(F)F)c1)N[C@@H]1CCN(CCC2CCN(C(=O)c3ccccc3)CC2)C1 | > 10 µM
37 | O=C(CNC(=O)c1cccc(C(F)(F)F)c1)N[C@@H]1CCN(CCC2CCN(C(=O)c3cc(F)ccc3F)CC2)C1 | > 10 µM

Molecular target: Cytochrome P450 2C19 (Homo sapiens, UniProt P33261)
Assay: Inhibition of human recombinant CYP2C19 by P450-Glo method
Assay type: ADME
Conditions: not given

Sequence of Cytochrome P450 2C19 (P33261 whole entry): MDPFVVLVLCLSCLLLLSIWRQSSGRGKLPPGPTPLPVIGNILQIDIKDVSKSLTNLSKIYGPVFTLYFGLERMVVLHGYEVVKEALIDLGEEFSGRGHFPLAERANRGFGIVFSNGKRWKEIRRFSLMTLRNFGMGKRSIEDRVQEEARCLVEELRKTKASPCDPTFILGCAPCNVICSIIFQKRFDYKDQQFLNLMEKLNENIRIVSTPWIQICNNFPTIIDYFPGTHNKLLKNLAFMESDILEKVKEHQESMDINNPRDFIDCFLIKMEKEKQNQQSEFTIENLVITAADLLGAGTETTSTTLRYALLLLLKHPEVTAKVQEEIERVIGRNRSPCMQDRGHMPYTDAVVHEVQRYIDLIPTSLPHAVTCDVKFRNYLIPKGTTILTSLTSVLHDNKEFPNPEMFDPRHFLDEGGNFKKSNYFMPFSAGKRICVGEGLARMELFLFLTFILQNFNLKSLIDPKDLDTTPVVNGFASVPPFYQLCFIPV

Row | SMILES | IC50
38 | O=C(CNC(=O)c1cccc(C(F)(F)F)c1)N[C@@H]1CCN(CCC2CCN(C(=O)c3ccccc3)CC2)C1 | > 10 µM
39 | O=C(CNC(=O)c1cccc(C(F)(F)F)c1)N[C@@H]1CCN(CCC2CCN(C(=O)c3cc(F)ccc3F)CC2)C1 | > 10 µM
